From PubChem BioAssay AID212 (DTP/NCI, 2004) come the findings set out here.

The test system of the experiment is BDF1 mice, colon carcinoma 38 sc, T/C %. Description: NCI In Vivo Anticancer Drug Screen. Data for tumor model Colon Carcinoma 38 (subcutaneous) in B6D2F1 (BDF1) mice. The conditions noted are these: endpoint: median tumor weight (est.), higher = larger tumour. The procedure, abridged: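 Compound antitumor activity was assessed in mice carrying transplantable tumors. Survival or tumor size was recorded, and each value is the treated-group measurement divided by that of the vehicle-treated control group.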

Setting [1] is: dose: 25.0 mg/kg/injection, schedule: Q07DX002 (ip), vehicle: saline with Tween-80.
[2] abbreviates: dose: 50.0 mg/kg/injection, schedule: Q07DX002 (ip), vehicle: saline with Tween-80.
Where [3] appears, read: dose: 100.0 mg/kg/injection, schedule: Q07DX002 (ip), vehicle: saline with Tween-80.
The mark [4] stands for this setting: dose: 200.0 mg/kg/injection, schedule: Q07DX002 (ip), vehicle: saline with Tween-80.
Where [5] appears, read: dose: 100.0 mg/kg/injection, schedule: Q07DX002 (ip), vehicle: saline.
Setting [6] is: dose: 200.0 mg/kg/injection, schedule: Q07DX002 (ip), vehicle: saline.
The mark [7] stands for this setting: dose: 800.0 mg/kg/injection, schedule: Q07DX002 (ip), vehicle: saline.

Values joined by “and” are separate entries in the source; they are usually repeats but may differ in a detail not shown here. Identical values can stand only once. Results filed as inconclusive are left out.

For `CCOC(C)C(/C=N/NC(N)=S)=NNC(N)=S` (centres undefined), the T/C (dose: 12.5 mg/kg/injection, schedule: Q07DX003 (ip), vehicle: saline with Tween-80) is 111 % of control; the T/C (dose: 25.0 mg/kg/injection, schedule: Q07DX003 (ip), vehicle: saline with Tween-80) was 61 % of control; the T/C (dose: 50.0 mg/kg/injection, schedule: Q07DX003 (ip), vehicle: saline with Tween-80) is 99 % of control; the T/C (dose: 100.0 mg/kg/injection, schedule: Q07DX003 (ip), vehicle: saline with Tween-80) is 155 % of control; the T/C (dose: 200.0 mg/kg/injection, schedule: Q07DX003 (ip), vehicle: saline with Tween-80) is 73 % of control; the T/C (dose: 400.0 mg/kg/injection, schedule: Q07DX003 (ip), vehicle: saline with Tween-80) was 66 % of control.
With `COCCCNC1=C(C#N)C(=O)NC(c2cccc([N+](=O)[O-])c2)S1` (centres undefined), the T/C runs as follows: (dose: 12.5 mg/kg/injection, schedule: Q07DX002 (ip), vehicle: saline with Tween-80) 97 % of control; under setting [1], 95 % of control; under setting [2], 108 % of control.
Take `O=C(O)CCCc1ccc(N(CCCl)CCCl)cc1`: the T/C was 103 % of control (dose: 7.5 mg/kg/injection, schedule: Q07DX003 (ip), vehicle: saline with Tween-80); 62 % of control and 72 % of control and 82 % of control (dose: 15.0 mg/kg/injection, schedule: Q07DX002 (ip), vehicle: Klucel (hydroxypropylcellulose) (HPC)); 37 % of control (dose: 15.0 mg/kg/injection, schedule: Q07DX003 (ip), vehicle: saline with Tween-80); 62 % of control (dose: 30.0 mg/kg/injection, schedule: Q07DX003 (ip), vehicle: saline with Tween-80); 69 % of control (dose: 60.0 mg/kg/injection, schedule: Q07DX002 (ip), vehicle: Klucel (hydroxypropylcellulose) (HPC)).
On to `C[C@H](CCC[C@H](C)OS(=O)(=O)c1ccccc1)OS(=O)(=O)c1ccccc1`, for which the T/C under setting [1] was 89 % of control and 91 % of control; the T/C under setting [2] was 91 % of control and 98 % of control; the T/C under setting [3] is 82 % of control; the T/C under setting [4] is 120 % of control and 100 % of control; the T/C (dose: 400.0 mg/kg/injection, schedule: Q07DX002 (ip), vehicle: saline with Tween-80) was 118 % of control; the T/C (dose: 800.0 mg/kg/injection, schedule: Q07DX002 (ip), vehicle: saline with Tween-80) is 116 % of control.
For `COC1CC(C)C(OC)C2=CC(=O)C=C(NC(=O)/C(C)=C/C=C\C(C)C(OC(N)=O)/C(C)=C\C(C)C1OC)C2=O` (centres undefined), the T/C was 111 % of control (dose: 3.13 mg/kg/injection, schedule: Q07DX002 (ip), vehicle: saline + alcohol); 110 % of control (dose: 6.25 mg/kg/injection, schedule: Q07DX002 (ip), vehicle: saline + alcohol); 105 % of control (dose: 12.5 mg/kg/injection, schedule: Q07DX002 (ip), vehicle: saline + alcohol); 110 % of control (dose: 25.0 mg/kg/injection, schedule: Q07DX002 (ip), vehicle: saline + alcohol); 102 % of control (dose: 50.0 mg/kg/injection, schedule: Q07DX002 (ip), vehicle: saline + alcohol).
Consider `N=c1nc2n(cc1F)[C@@H]1O[C@H](CO)[C@@H](O)[C@@H]1O2`, for which the T/C was 118 % of control under setting [5]; 117 % of control (dose: 100.0 mg/kg/injection, schedule: Q07DX002 (ip), vehicle: suspension in saline); 193 % of control under setting [6]; 93 % of control (dose: 200.0 mg/kg/injection, schedule: Q07DX002 (ip), vehicle: suspension in saline); 99 % of control (dose: 400.0 mg/kg/injection, schedule: Q07DX002 (ip), vehicle: suspension in saline); 102 % of control under setting [7]. The T/C (dose: 1600.0 mg/kg/injection, schedule: Q07DX002 (ip), vehicle: saline) was 53 % of control and the T/C (dose: 1600.0 mg/kg/injection, schedule: Q07DX002 (ip), vehicle: suspension in saline) is 40 % of control.
With `Cc1ccccc1N(CC1CO1)CC1CO1` (centres undefined), the T/C was 81 % of control under setting [1]; 104 % of control under setting [2]; 57 % of control under setting [3]; 123 % of control under setting [4]; 154 % of control under setting [6]; 89 % of control under setting [7].
On to `CC[N](CC)[Ge]([CH2]C)[CH2]C.CC[N](CC)[Ge]([CH2]C)[CH2]C`, for which the T/C by setting is: (dose: 6.25 mg/kg/injection, schedule: Q07DX002 (ip), vehicle: saline) 87 % of control; (dose: 6.25 mg/kg/injection, schedule: Q07DX002 (ip), vehicle: suspension in saline) 77 % of control; (dose: 12.5 mg/kg/injection, schedule: Q07DX002 (ip), vehicle: saline) 77 % of control; (dose: 12.5 mg/kg/injection, schedule: Q07DX002 (ip), vehicle: suspension in saline) 69 % of control; (dose: 25.0 mg/kg/injection, schedule: Q07DX002 (ip), vehicle: saline) 79 % of control; (dose: 25.0 mg/kg/injection, schedule: Q07DX002 (ip), vehicle: suspension in saline) 95 % of control. For the same compound, the T/C (dose: 50.0 mg/kg/injection, schedule: Q07DX002 (ip), vehicle: saline) is 77 % of control; the T/C (dose: 50.0 mg/kg/injection, schedule: Q07DX002 (ip), vehicle: suspension in saline) is 84 % of control; the T/C under setting [5] was 61 % of control.
Turning to `Nc1nc(=S)c2[nH]cnc2[nH]1`, the T/C was 105 % of control (dose: 1.56 mg/kg/injection, schedule: Q07DX002 (ip), vehicle: alkali diluted with saline); 63 % of control (dose: 2.0 mg/kg/injection, schedule: Q07DX002 (ip), vehicle: alkali diluted with saline); 37 % of control and 46 % of control (2×) (dose: 2.0 mg/kg/injection, schedule: Q07DX003 (ip), vehicle: alkali diluted with saline); 52 % of control and 61 % of control (dose: 2.0 mg/kg/injection, schedule: Q07DX003 (ip), vehicle: saline); 32 % of control (dose: 3.13 mg/kg/injection, schedule: Q07DX002 (ip), vehicle: alkali diluted with saline); 44 % of control (dose: 4.0 mg/kg/injection, schedule: Q07DX002 (ip), vehicle: alkali diluted with saline). In addition, the T/C is 54 % of control and 78 % of control (dose: 4.0 mg/kg/injection, schedule: Q07DX002 (ip), vehicle: saline); 27 % of control and 42 % of control (dose: 4.0 mg/kg/injection, schedule: Q07DX003 (ip), vehicle: saline); 29 % of control (dose: 6.25 mg/kg/injection, schedule: Q07DX002 (ip), vehicle: alkali diluted with saline); 21 % of control (dose: 8.0 mg/kg/injection, schedule: Q07DX002 (ip), vehicle: alkali diluted with saline); 26 % of control and 31 % of control (dose: 8.0 mg/kg/injection, schedule: Q07DX002 (ip), vehicle: saline); 8 % of control and 11 % of control and 18 % of control (dose: 8.0 mg/kg/injection, schedule: Q07DX003 (ip), vehicle: alkali diluted with saline). Besides, the T/C is 13 % of control and 37 % of control (dose: 8.0 mg/kg/injection, schedule: Q07DX003 (ip), vehicle: saline); 9 % of control (dose: 12.5 mg/kg/injection, schedule: Q07DX002 (ip), vehicle: alkali diluted with saline); 20 % of control (dose: 16.0 mg/kg/injection, schedule: Q07DX002 (ip), vehicle: alkali diluted with saline); 17 % of control and 24 % of control (dose: 16.0 mg/kg/injection, schedule: Q07DX002 (ip), vehicle: saline); 2 % of control and 8 % of control (dose: 16.0 mg/kg/injection, schedule: Q07DX003 (ip), vehicle: alkali diluted with saline); 4 % of control and 15 % of control (dose: 16.0 mg/kg/injection, schedule: Q07DX003 (ip), vehicle: saline). In addition, the T/C is 18 % of control (dose: 25.0 mg/kg/injection, schedule: Q07DX002 (ip), vehicle: alkali diluted with saline); 14 % of control (dose: 32.0 mg/kg/injection, schedule: Q07DX002 (ip), vehicle: alkali diluted with saline); 2 % of control (dose: 32.0 mg/kg/injection, schedule: Q07DX003 (ip), vehicle: alkali diluted with saline); 9 % of control (dose: 32.0 mg/kg/injection, schedule: Q07DX003 (ip), vehicle: saline); 16 % of control (dose: 50.0 mg/kg/injection, schedule: Q07DX002 (ip), vehicle: alkali diluted with saline).
For `Nc1ccn(C2CC(O)C(CO)O2)c(=O)n1` (centres undefined), the T/C runs as follows: (dose: 42.19 mg/kg/injection, schedule: Q07DX002 (ip), vehicle: water) 124 % of control; (dose: 84.38 mg/kg/injection, schedule: Q07DX002 (ip), vehicle: water) 79 % of control; (dose: 337.5 mg/kg/injection, schedule: Q07DX002 (ip), vehicle: water) 110 % of control.
